# Data taken from patent publication US4435583A, “2-Halo-substituted monic acid A useful as antibacterial compounds” (Beecham Group p.l.c., priority 1981, dated 1984).
# Legend:
# Type in all cases: cell-based
# M. hyorhinis ATCC 23234 = experiment: In vitro anti-mycoplasmal MIC; details: Mesomycoplasma hyorhinis, ATCC23234, 144 h, Friis broth, 0.9% agarose, 6 days, 37° C., read-out: MIC
# [1] = system: M. suipneumoniae PW/C/210; experiment: In vitro anti-mycoplasmal MIC; details: Mesomycoplasma hyopneumoniae, 144 h, Friis broth, 0.9% agarose, 6 days, 37° C., read-out: MIC
# M. suipneumoniae UCD 1 = experiment: In vitro anti-mycoplasmal MIC; details: Friis broth, 0.9% agarose, 6 days, 37° C.
# Staph. aureus W2827 = experiment: MIC against human bacteria; details: nutrient agar, 5% chocolated horse blood, 18 hours, 37° C.
# Description: (§1) The values were determined by serial dilutions in nutrient agar with 5% chocolated horse blood after incubations for 18 hours at 37° C.
# Staph. aureus Oxford [2] = experiment: MIC against human bacteria; details: nutrient agar, 5% chocolated horse blood, 18 hours, 37° C.
# Description: as §1
# [3] = system: Haemophilus influenzae Wy21; experiment: MIC against human bacteria; details: nutrient agar, 5% chocolated horse blood, 18 hours, 37° C., read-out: MIC
# Description: as §1
# P. mirabilis 889 = experiment: MIC against human bacteria; details: nutrient agar, 5% chocolated horse blood, 18 hours, 37° C.
# Description: as §1
# Strep. faecalis I = experiment: MIC against human bacteria; details: nutrient agar, 5% chocolated horse blood, 18 hours, 37° C.
# Description: as §1
# Staph. aureus Russell = experiment: MIC against human bacteria; details: nutrient agar, 5% chocolated horse blood, 18 hours, 37° C.
# Description: as §1
# Strep. 641848-C = experiment: MIC against human bacteria; details: nutrient agar, 5% chocolated horse blood, 18 hours, 37° C.
# Description: as §1
# [4] = system: Corynebacterium xerosis 9755; experiment: MIC against human bacteria; details: nutrient agar, 5% chocolated horse blood, 18 hours, 37° C.
# Description: as §1
# Strep. 2788-B = experiment: MIC against human bacteria; details: nutrient agar, 5% chocolated horse blood, 18 hours, 37° C.
# Description: as §1
# [5] = system: Haemophilus influenzae Q1; experiment: MIC against human bacteria; details: nutrient agar, 5% chocolated horse blood, 18 hours, 37° C., read-out: MIC
# Description: as §1
# [6] = system: Strep. pyrogenes R80/421-A; experiment: MIC against human bacteria; details: nutrient agar, 5% chocolated horse blood, 18 hours, 37° C.
# Description: as §1
# Bacillus subtilis 6633 = experiment: MIC against human bacteria; details: nutrient agar, 5% chocolated horse blood, 18 hours, 37° C.
# Description: as §1
# Past. multocida 1633 = experiment: MIC against human bacteria; details: nutrient agar, 5% chocolated horse blood, 18 hours, 37° C.
# Description: as §1
# Strep. pneumoniae CN33 = experiment: MIC against human bacteria; details: nutrient agar, 5% chocolated horse blood, 18 hours, 37° C.
# Description: as §1
# E. coli ESS = experiment: MIC against human bacteria; details: nutrient agar, 5% chocolated horse blood, 18 hours, 37° C.
# Description: as §1
# [7] = system: Ps. aeruginosa NCTC 10662; experiment: MIC against human bacteria; details: nutrient agar, 5% chocolated horse blood, 18 hours, 37° C.
# Description: as §1
# K. aerogenes A = experiment: MIC against human bacteria; details: nutrient agar, 5% chocolated horse blood, 18 hours, 37° C.
# Description: as §1
# [8] = system: Neisseria catarrhalis 1502; experiment: MIC against human bacteria; details: nutrient agar, 5% chocolated horse blood, 18 hours, 37° C.
# Description: as §1
# Sarcina lutea 8340 = experiment: MIC against human bacteria; details: nutrient agar, 5% chocolated horse blood, 18 hours, 37° C.
# Description: as §1
# E. coli NCTC 10418 [9] = experiment: MIC against human bacteria; details: nutrient agar, 5% chocolated horse blood, 18 hours, 37° C.
# Description: as §1
# M. suipneumoniae TAM 6N = experiment: In vitro anti-mycoplasmal MIC; details: Friis broth, 0.9% agarose, 6 days, 37° C.
# [10] = system: M. suipneumoniae J2206/183b; experiment: In vitro anti-mycoplasmal MIC; details: Friis broth, 0.9% agarose, 6 days, 37° C.
# M. bovis NCTC 10131 = experiment: microbe, parasite or virus in culture; details: M. bovis NCTC 10131; Friis broth, 0.9% agarose; 6 days, 37° C.
# M. suipneumoniae Str.11 = experiment: In vitro anti-mycoplasmal MIC; details: Friis broth, 0.9% agarose, 6 days, 37° C.
# M. suipneumoniae LABER = experiment: In vitro anti-mycoplasmal MIC; details: Mesomycoplasma hyopneumoniae, 144 h, Friis broth, 0.9% agarose, 6 days, 37° C., read-out: MIC
# [11] = system: M. hyosynoviae ATCC 25591; experiment: In vitro anti-mycoplasmal MIC; details: 144 h, Friis broth, 0.9% agarose, 6 days, 37° C., read-out: MIC
# M. suipneumoniae JF435 = experiment: In vitro anti-mycoplasmal MIC; details: Friis broth, 0.9% agarose, 6 days, 37° C.
# Staph. aureus Oxford [12] = experiment: MIC against veterinary bacteria; details: Diagnostic Sensitivity Test Agar, 18 hours, 37° C.
# Description: (§2) The values were determined using a two fold serial dilutions in Diagnostic Sensitivity Test Agar with an inoculum of 10^4 organisms and incubation for 18 hours at 37° C.
# S. dublin S7 = experiment: MIC against veterinary bacteria; details: Diagnostic Sensitivity Test Agar, 18 hours, 37° C.
# Description: as §2
# Bord. bronchiseptica B08 = experiment: MIC against veterinary bacteria; details: Diagnostic Sensitivity Test Agar, 18 hours, 37° C.
# Description: as §2
# Past. multocida PA2 = experiment: MIC against veterinary bacteria; details: Diagnostic Sensitivity Test Agar, 18 hours, 37° C.
# Description: as §2
# Strep. uberis SPU1 = experiment: MIC against veterinary bacteria; details: Strep. uberis SPU1; Diagnostic Sensitivity Test Agar; 18 hours, 37° C.
# Description: as §2
# [13] = system: Erysipelothrix rhusiopathiae NCTC 8163; experiment: MIC against veterinary bacteria; details: Diagnostic Sensitivity Test Agar, 18 hours, 37° C.
# Description: as §2
# Past. multocida PA1 = experiment: MIC against veterinary bacteria; details: Diagnostic Sensitivity Test Agar, 18 hours, 37° C.
# Description: as §2
# S. typhimurium S18 = experiment: MIC against veterinary bacteria; details: Diagnostic Sensitivity Test Agar, 18 hours, 37° C.
# Description: as §2
# Staph. aureus B4 = experiment: MIC against veterinary bacteria; details: Diagnostic Sensitivity Test Agar, 18 hours, 37° C.
# Description: as §2
# [14] = system: Corynebacterium pyogenes CY1; experiment: MIC against veterinary bacteria; details: Diagnostic Sensitivity Test Agar, 18 hours, 37° C.
# Description: as §2
# Staph. aureus 152 = experiment: MIC against veterinary bacteria; details: Diagnostic Sensitivity Test Agar, 18 hours, 37° C.
# Description: as §2
# Strep. dysgalactiae SPD1 = experiment: MIC against veterinary bacteria; details: Diagnostic Sensitivity Test Agar, 18 hours, 37° C.
# Description: as §2
# [15] = system: Strep. suis (group D) SPS11; experiment: MIC against veterinary bacteria; details: Diagnostic Sensitivity Test Agar, 18 hours, 37° C.
# Description: as §2
# Strep. agalactiae SPA1 = experiment: MIC against veterinary bacteria; details: Diagnostic Sensitivity Test Agar, 18 hours, 37° C.
# Description: as §2
# E. coli E1 = experiment: MIC against veterinary bacteria; details: Diagnostic Sensitivity Test Agar, 18 hours, 37° C.
# Description: as §2
# Past. haemolytica PA5 = experiment: MIC against veterinary bacteria; details: Diagnostic Sensitivity Test Agar, 18 hours, 37° C.
# Description: as §2
# Bord. bronchiseptica B09 = experiment: MIC against veterinary bacteria; details: Diagnostic Sensitivity Test Agar, 18 hours, 37° C.
# Description: as §2
# E. coli NCTC 10418 [16] = experiment: MIC against veterinary bacteria; details: Diagnostic Sensitivity Test Agar, 18 hours, 37° C.
# Description: as §2
# M. gallisepticum S6 = experiment: In vitro anti-mycoplasmal MIC; details: Friis broth, 0.9% agarose, 6 days, 37° C.
# [17] = system: M. suipneumoniae NCTC 10110; experiment: In vitro anti-mycoplasmal MIC; details: Friis broth, 0.9% agarose, 6 days, 37° C.
# M. hyorhinis ATCC 25021 = experiment: In vitro anti-mycoplasmal MIC; details: Mesomycoplasma hyorhinis, ATCC25021, 144 h, Friis broth, 0.9% agarose, 6 days, 37° C., read-out: MIC
# M. suipneumoniae MS16 = experiment: In vitro anti-mycoplasmal MIC; details: Mesomycoplasma hyopneumoniae, 144 h, Friis broth, 0.9% agarose, 6 days, 37° C., read-out: MIC
# M. dispar NCTC 10125 = experiment: In vitro anti-mycoplasmal MIC; details: 144 h, Friis broth, 0.9% agarose, 6 days, 37° C., read-out: MIC
# [18] = system: M. suipneumoniae ATCC 25095; experiment: In vitro anti-mycoplasmal MIC; details: Friis broth, 0.9% agarose, 6 days, 37° C.
# [19] = system: M. bovigenitalium ATCC 14173; experiment: In vitro anti-mycoplasmal MIC; details: 144 h, Friis broth, 0.9% agarose, 6 days, 37° C., read-out: MIC
# M. suipneumoniae NB12 = experiment: In vitro anti-mycoplasmal MIC; details: Friis broth, 0.9% agarose, 6 days, 37° C.
# M. suipneumoniae HK(2) = experiment: In vitro anti-mycoplasmal MIC; details: Friis broth, 0.9% agarose, 6 days, 37° C.
# M. pneumoniae ATCC 15492 = experiment: In vitro anti-mycoplasmal MIC; details: Friis broth, 0.9% agarose, 6 days, 37° C.
smiles,measurement,setting,value
"CCOC(=O)C(F)=C(C)CC1OCC(CC2OC2C(C)C(C)O)C(O)C1O [Example 2, Ethyl-4-[5S-(2S,3S-epoxy-5S-hydroxy-4S-methylhexyl)-3R, 4R-dihydroxytetrahydropyran-2S-yl]-2-fluoro-3-methylbut-2(E)-enoate]",MIC,M. hyorhinis ATCC 23234,5 µg/mL
same,MIC,[1],5 µg/mL
same,MIC,M. suipneumoniae UCD 1,10.0 µg/mL
same,MIC,Staph. aureus W2827,50.0 µg/mL
same,MIC,Staph. aureus Oxford [2],25.0 µg/mL
same,MIC,[3],10 µg/mL
same,MIC,P. mirabilis 889,> 100.0 µg/mL
same,MIC,Strep. faecalis I,> 100.0 µg/mL
same,MIC,Staph. aureus Russell,50.0 µg/mL
same,MIC,Strep. 641848-C,100.0 µg/mL
same,MIC,[4],> 100.0 µg/mL
same,MIC,Strep. 2788-B,> 100.0 µg/mL
same,MIC,[5],10 µg/mL
same,MIC,[6],100.0 µg/mL
same,MIC,Bacillus subtilis 6633,100.0 µg/mL
same,MIC,Past. multocida 1633,50.0 µg/mL
same,MIC,Strep. pneumoniae CN33,100.0 µg/mL
same,MIC,E. coli ESS,50.0 µg/mL
same,MIC,[7],> 100.0 µg/mL
same,MIC,K. aerogenes A,> 100.0 µg/mL
same,MIC,[8],10.0 µg/mL
same,MIC,Sarcina lutea 8340,> 100.0 µg/mL
same,MIC,E. coli NCTC 10418 [9],> 100.0 µg/mL
same,MIC,M. suipneumoniae TAM 6N,10.0 µg/mL
same,MIC,[10],10.0 µg/mL
same,MIC,M. bovis NCTC 10131,0.25 µg/mL
same,MIC,M. suipneumoniae Str.11,5.0 µg/mL
same,MIC,M. suipneumoniae LABER,5 µg/mL
same,MIC,[11],10 µg/mL
same,MIC,M. suipneumoniae JF435,10.0 µg/mL
same,MIC,Staph. aureus Oxford [12],40.0 µg/mL
same,MIC,S. dublin S7,> 80.0 µg/mL
same,MIC,Bord. bronchiseptica B08,> 80.0 µg/mL
same,MIC,Past. multocida PA2,20.0 µg/mL
same,MIC,Strep. uberis SPU1,20.0 µg/mL
same,MIC,[13],80.0 µg/mL
same,MIC,Past. multocida PA1,40.0 µg/mL
same,MIC,S. typhimurium S18,> 80.0 µg/mL
same,MIC,Staph. aureus B4,40.0 µg/mL
same,MIC,[14],80.0 µg/mL
same,MIC,Staph. aureus 152,40.0 µg/mL
same,MIC,Strep. dysgalactiae SPD1,40.0 µg/mL
same,MIC,[15],80.0 µg/mL
same,MIC,Strep. agalactiae SPA1,80.0 µg/mL
same,MIC,E. coli E1,> 80.0 µg/mL
same,MIC,Past. haemolytica PA5,80.0 µg/mL
same,MIC,Bord. bronchiseptica B09,> 80.0 µg/mL
same,MIC,E. coli NCTC 10418 [16],> 80.0 µg/mL
same,MIC,M. gallisepticum S6,10.0 µg/mL
same,MIC,[17],10.0 µg/mL
same,MIC,M. hyorhinis ATCC 25021,5 µg/mL
same,MIC,M. suipneumoniae MS16,5 µg/mL
same,MIC,M. dispar NCTC 10125,2.5 µg/mL
same,MIC,[18],10.0 µg/mL
same,MIC,[19],0.5 µg/mL
same,MIC,M. suipneumoniae NB12,10.0 µg/mL
same,MIC,M. suipneumoniae HK(2),10.0 µg/mL
same,MIC,M. pneumoniae ATCC 15492,10.0 µg/mL
